Tests used:
OR4E2 = OR4E2 (Homo sapiens, UniProt Q8NGC2); settings: in the presence of a metal ion (JP-A-2020-513564); cited from earlier work
consensus OR4K17 = molecular target: T1, consensus OR4K17 (Homo sapiens, UniProt Q8NGC6, A163V/E24Q/F120Y/F158L/G263S/I192T/I205M/I296T/I46V/K226R/L86V/P230S/S297A/V197I/V23I/V81M/V91T); experiment: Luciferase assay, sulfur compounds; type: cell-based
T1 construct: expressed in transfected cells; host or cells: HEK293
T1 sequence (Q8NGC6 with tags, fused parts or gaps V23I/E24Q/I46V/V81M/L86V/V91T/F120Y/F158L/A163V/I192T/V197I/I205M/K226R/P230S/G263S/I296T/S297A): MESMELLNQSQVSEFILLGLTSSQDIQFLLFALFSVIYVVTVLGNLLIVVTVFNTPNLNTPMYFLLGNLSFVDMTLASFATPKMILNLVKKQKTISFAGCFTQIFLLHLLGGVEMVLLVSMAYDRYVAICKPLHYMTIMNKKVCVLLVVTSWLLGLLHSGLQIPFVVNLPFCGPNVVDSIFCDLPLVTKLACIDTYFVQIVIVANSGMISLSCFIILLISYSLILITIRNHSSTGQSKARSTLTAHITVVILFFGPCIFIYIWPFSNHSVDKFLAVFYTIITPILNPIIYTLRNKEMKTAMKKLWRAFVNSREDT
Procedure: (§1) A reaction solution as to each consensus olfactory receptor prepared in Examples described above was prepared according to the composition shown in Table 4, left standing for 20 minutes in a clean bench, and then added to each well of a 96-well plate (Becton, Dickinson and Company). The original olfactory receptor was used as to OR4S2. Composition shown in Table 20 was used as to OR11H2 and OR4E2. Subsequently, 100 μL of HEK293 cells suspended in DMEM (Nacalai Tesque, Inc.) was inoculated at 2×10^5 cells/cm^2 to each well, and cultured for 24 hours in an incubator kept at 37° C. and 5% CO2. Cells expressing no olfactory receptor (Mock) were provided as a control.
(§2) The medium was removed from the cultures prepared in 1), and 75 μL of a test substance solution (methyl mercaptan (MeSH) (CAS: 74-93-1, Tokyo Chemical Industry Co., Ltd.), dimethyl sulfide (DMS) (CAS: 75-18-3, FUJIFILM Wako Pure Chemical Corp.), dimethyl disulfide (DMDS) (CAS: 624-92-0, Tokyo Chemical Industry Co., Ltd.), concentration range: 0 μM, 1 μM, 3 μM, 10 μM, 30 μM, 100 μM, and 300 μM, or dimethyl trisulfide (DMTS) (CAS: 3658-80-8, Tokyo Chemical Industry Co., Ltd.), concentration range: 0 μM, 0.1 μM, 0.3 μM, 1 μM, 3 μM, 10 μM, and 30 μM) prepared with a fresh medium was added thereto. Under a copper ion addition condition, the test substance solution was adjusted to contain 30 μM copper(II) chloride (FUJIFILM Wako Pure Chemical Corp.) in addition to the odorant. The cells were cultured for 4 hours in a CO2 incubator and the luciferase gene was expressed sufficiently in the cells. Luciferase activity was measured using Dual-Glo™ luciferase assay system (Promega Corp.) in accordance with the operation manual of the product. A luminescence value derived from firefly luciferase induced by test substance stimulation in each well of the 96-well plate was divided by a luminescence value derived from Renilla luciferase to calculate a value (fluc/hRluc) as a signal, which was then used in analysis. The signal under each transfection condition was normalized with the signal value (fluc/hRluc) under an odorant stimulation-free condition defined as 0% and the signal value (fluc/hRluc) by stimulation with 10 μM forskolin defined as 100%, and used as a response (%) in analysis.

consensus OR4C15 = molecular target: T2, consensus OR4C15 (Homo sapiens, UniProt Q8NGM1, A218G/A270V/E23K/G63A/I200A/I247V/I275T/L152F/L222F/L266F/M197L/N174D/N209I/N278T/Q295N/R137W/R299K/T258A/T88R/V55G/V87E/W233R); experiment: Luciferase assay, sulfur compounds; type: cell-based
T2 construct: Flag (N); Rho tag (N); expressed in transfected cells; host or cells: HEK293
Procedure: as §1, §2

[1] = molecular target: T3, OR4S2 (original olfactory receptor) (Homo sapiens, UniProt Q8NH73); experiment: Luciferase assay, sulfur compounds; type: cell-based
T3 construct: expressed in transfected cells; host or cells: HEK293
T3 sequence (Q8NH73 1-311): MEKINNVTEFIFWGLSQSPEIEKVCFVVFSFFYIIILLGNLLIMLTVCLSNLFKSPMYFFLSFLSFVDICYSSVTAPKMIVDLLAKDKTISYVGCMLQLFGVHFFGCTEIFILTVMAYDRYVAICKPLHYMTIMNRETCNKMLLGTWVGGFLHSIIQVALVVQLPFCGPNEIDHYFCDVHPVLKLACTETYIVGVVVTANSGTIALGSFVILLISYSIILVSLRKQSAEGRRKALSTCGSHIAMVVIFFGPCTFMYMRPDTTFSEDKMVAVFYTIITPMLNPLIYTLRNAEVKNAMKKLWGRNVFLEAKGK
Procedure: as §1, §2

consensus OR4E2 = molecular target: T4, consensus OR4E2 (Homo sapiens, UniProt Q8NGC2, A48T/F285L/G158V/H228Q/I116T/I142V/I197M/I47V/L183P/M219T/M25I/M36V/Q234R/R21W/S209T/S40L/S54R/T201S/T49I/T99A/V118M/V214L); experiment: Luciferase assay, sulfur compounds; type: cell-based
T4 construct: Flag (N); Rho tag (N); expressed in transfected cells; host or cells: HEK293
T4 sequence (Q8NGC2 1-312 R21W/M25I/M36V/S40L/I47V/A48T/T49I/S54R/T99A/I116T/V118M/I142V/G158V/L183P/I197M/T201S/S209T/V214L/M219T/H228Q/Q234R/F285L limits assumed): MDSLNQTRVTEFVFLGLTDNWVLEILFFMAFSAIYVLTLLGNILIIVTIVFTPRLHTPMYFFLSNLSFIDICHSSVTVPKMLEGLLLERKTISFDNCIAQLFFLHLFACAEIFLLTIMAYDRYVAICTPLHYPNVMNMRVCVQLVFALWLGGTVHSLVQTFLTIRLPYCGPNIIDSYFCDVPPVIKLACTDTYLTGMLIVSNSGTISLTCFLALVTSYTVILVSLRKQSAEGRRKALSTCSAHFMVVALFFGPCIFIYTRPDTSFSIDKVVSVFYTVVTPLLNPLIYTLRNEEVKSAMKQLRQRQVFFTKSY
Procedure: as §1, §2

consensus OR11H2 = molecular target: T5, consensus OR11H2 (Homo sapiens, UniProt Q8NH07, A157T/A61V/C266F/D203A/E289A/F213L/F41L/F62C/G242R/I210T/I230L/I288V/I49T/K181M/K238L/L128F/L146H/L162I/M76I/N106T/N25R/P269S/Q137R/Q308R/Q30L/R68Q/S246A/S268G/T131A/T283A/T37K/V63A/Y156C); experiment: Luciferase assay, sulfur compounds; type: cell-based
T5 construct: expressed in transfected cells; host or cells: HEK293
T5 sequence (Q8NH07 12-326 N25R/Q30L/T37K/F41L/I49T/A61V/F62C/V63A/R68Q/M76I/N106T/L128F/T131A/Q137R/L146H/Y156C/A157T/L162I/K181M/D203A/I210T/F213L/I230L/K238L/G242R/S246A/C266F/S268G/P269S/T283A/I288V/E289A/Q308R): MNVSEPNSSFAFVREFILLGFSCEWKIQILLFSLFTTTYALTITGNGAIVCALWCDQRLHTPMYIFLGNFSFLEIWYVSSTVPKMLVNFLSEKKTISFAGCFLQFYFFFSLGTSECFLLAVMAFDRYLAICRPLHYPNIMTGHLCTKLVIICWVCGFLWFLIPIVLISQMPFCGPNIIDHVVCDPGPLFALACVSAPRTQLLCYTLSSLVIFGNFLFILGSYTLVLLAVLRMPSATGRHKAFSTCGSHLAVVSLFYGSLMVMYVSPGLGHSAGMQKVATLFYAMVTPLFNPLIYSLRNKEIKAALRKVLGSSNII
Procedure: as §1, §2

[2] = test system: HEK293 cells expressing olfactory receptor; experiment: Luciferase assay: ligand responsiveness of consensus vs original olfactory receptors; type: cell-based, human; settings: consensus design
Procedure: For luciferase assay, a reaction solution was prepared according to composition shown in Table 4, left standing for 20 minutes in a clean bench, and then added to each well of a 96-well plate (Becton, Dickinson and Company). Subsequently, 100 μL of HEK293 cells suspended in DMEM (Nacalai Tesque, Inc.) was inoculated at 2×10^5 cells/cm^2 to each well, and cultured for 24 hours in an incubator kept at 37° C. and 5% CO2. Cells expressing no olfactory receptor (Mock) were provided as a control.
The medium was removed from the cultures prepared in 2), and 75 μL of a test substance solution with a predetermined concentration prepared with a fresh medium was added thereto. The cells were cultured for 4 hours in a CO2 incubator and the luciferase gene was sufficiently expresses in the cells. Luciferase activity was measured using Dual-Glo™ luciferase assay system (Promega Corp.) in accordance with the operation manual of the product. A luminescence value derived from firefly luciferase induced by test substance stimulation in each well of the 96-well plate was divided by a luminescence value derived from Renilla luciferase to calculate a signal, which was then used in analysis. The signal under each transfection condition was normalized with the signal under a stimulation-free condition defined as 0% and the signal by stimulation with 30 μM forskolin defined as 100%, and used as a response (%) in analysis.

[3] = in the presence of a copper ion

T2 sequence (Q8NGM1 1-311 with the stated changes limits assumed): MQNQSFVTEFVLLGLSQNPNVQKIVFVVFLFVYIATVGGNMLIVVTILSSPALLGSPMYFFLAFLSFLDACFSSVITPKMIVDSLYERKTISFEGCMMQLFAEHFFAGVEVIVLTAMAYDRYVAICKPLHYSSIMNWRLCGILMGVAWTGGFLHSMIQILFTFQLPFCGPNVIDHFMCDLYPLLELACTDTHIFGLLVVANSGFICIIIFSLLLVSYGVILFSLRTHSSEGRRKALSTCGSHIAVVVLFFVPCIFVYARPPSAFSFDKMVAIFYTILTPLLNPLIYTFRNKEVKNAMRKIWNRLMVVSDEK
Chain of OR4E2 (Q8NGC2 whole entry): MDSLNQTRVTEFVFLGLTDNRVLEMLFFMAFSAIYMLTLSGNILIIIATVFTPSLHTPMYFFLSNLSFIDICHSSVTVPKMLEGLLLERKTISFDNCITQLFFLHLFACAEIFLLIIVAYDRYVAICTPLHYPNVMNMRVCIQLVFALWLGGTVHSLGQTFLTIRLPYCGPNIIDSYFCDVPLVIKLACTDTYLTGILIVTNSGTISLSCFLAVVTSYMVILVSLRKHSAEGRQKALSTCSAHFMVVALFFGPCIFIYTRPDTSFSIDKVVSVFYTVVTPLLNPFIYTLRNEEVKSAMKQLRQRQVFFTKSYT

CC(C)(S)CCO [3-mercapto-3-methylbutanol]
response of OR4E2 (OR4E2): responds

CSC [dimethyl sulfide]
EC50 (consensus OR4K17; consensus OR4K17, 30 μM CuCl2, read-out: EC50(μM) with 30 μM CuCl2): 188 µM
dose dependence of the response of consensus OR4K17 (consensus OR4K17; [3]): dose-dependent manner
response of consensus OR4K17 (consensus OR4K17; [3]): responded
EC50 (consensus OR4C15; consensus OR4C15, 30 μM CuCl2, read-out: EC50(μM) with 30 μM CuCl2): 414 µM
dose dependence of the response of consensus OR4C15 (consensus OR4C15; [3]): dose-dependent manner
response of consensus OR4C15 (consensus OR4C15; [3]): responded
EC50 ([1]; OR4S2 (original), 30 μM CuCl2, read-out: EC50(μM) with 30 μM CuCl2): 22 µM
dose dependence of the response of OR4S2 [1, 3]: dose-dependent manner
response of OR4S2 [1, 3]: responded
EC50 (consensus OR4E2; consensus OR4E2, 30 μM CuCl2, read-out: EC50(μM) with 30 μM CuCl2): 22 µM
dose dependence of the response of consensus OR4E2 (consensus OR4E2; [3]): dose-dependent manner
response of consensus OR4E2 (consensus OR4E2; [3]): responded
EC50 (consensus OR11H2; consensus OR11H2, 30 μM CuCl2): 22 µM
dose dependence of the response of consensus OR11H2 (consensus OR11H2; [3]): dose-dependent manner
response of consensus OR11H2 (consensus OR11H2; [3]): responded

B1: consensus OR4S2 (b): consensus olfactory receptor polypeptide (protein)
chain: MEKINNVTEFIFWGLSQSPEVQRVCFVVFLFFYIAIVLGNLLIVLTVCLSNSLKSPMYFFLSFLSFVEICYSSVTAPKMIVDLLAKDKTISYVGCMLQLFFVHFFGCTEIFLLTVMAYDRYVAICKPLHYMTIMNRQTCNKLVLGTWVGGFLHSIIQVLLVVQLPFCGPNVIDHYFCDLHPVLKLACTDTFIVGVVVTANSGTIALGSFVILLISYSIILVSLRKQSAEGRRKALSTCGSHITVVILFFGPCIFMYMRPSTTFSEDKMVAVFYTIITPMLNPLIYTLRNAEVKNAMKKLWGRNVFLEAKGK
modifications: OR4S2 consensus-b
notes: consensus olfactory receptor polypeptide
ligand responsiveness in comparison with the original human receptor [2]: elevates responsiveness

B2: consensus OR2A25 (b): consensus olfactory receptor polypeptide (protein)
chain: MGGNQTSITEFLLLGFPVGPRIQMLLFGLFSLFYVFTLLGNGTILGLISLDSRLHTPMYFFLSHLAVVDIAYACNTVPQMLVNLLHPAKPISFAGCMTQTFLFLSFAHTECLLLVVMSYDRYVAICHPLRYSAIMTWRVCITLALTSWTLGVLLALIHLVLLLPLPFCRPQKINHFFCEIMAVLKLACADTHINEVMVLAGAISVLVGPLSSIVVSYMCILCAILKIQSGEGQRKAFSTCSSHLCVVGLFYGTAIIMYVGPQYGNPKEQKKYLLLFHSLFNPMLNPLIYSLRNSEVKNTLKRMLEKERAL
modifications: OR2A25 consensus-b
notes: as for B1
ligand responsiveness in comparison with the original human receptor [2]: sufficiently elevated

B3: consensus OR7A17 (a): consensus olfactory receptor polypeptide (protein)
chain: MEPENDTGISEFLLLGLSEEPELQPFLFGLFLSMYLVTVLGNLLIILATISDSHLHTPMYFFLSNLSFADICFISTTVPKMLINIQTQSRVITYAGCITQMCFFVLFGGLDSLLLAVMAYDRFVAICHPLHYTVIMNPRLCGLLVLASWMIAALNSLSQSLMVLWLSFCTDLEIPHFFCELNQVIHLACSDTFLNDMGMYFAAGLLAGGPLAGILYSYSKIVSSIRAISSAQGKYKAFSTCASHLSVVSLFCCTGLGVYLTSAATHNSHTSATASVMYTVATPMLNPFIYSLRNKDIKRALKMSFRGKQ
modifications: OR7A17 consensus-a
notes: as for B1
ligand responsiveness in comparison with the original human receptor [2]: elevates responsiveness

B4: consensus OR7D4 (c): consensus olfactory receptor polypeptide (protein)
chain: MEAENHTEVSEFLLLGLSEDPELQPLLFGLFLSMYLVTVLGNLLIILAISSDSHLHTPMYFFLSNLSFVDICFISTTVPKMLVNIQAQSKDISYMGCLTQVYFFMIFAGMDNFLLTVMAYDRFVAICHPLHYTVIMNPRLCGLLVLASWFIIFWVSLVHILLMKRLTFCTGTEIPHFFCELAQVLKVACSDTLINNIVLYVATALLGVFPLTGILFSYSQIVSSLMRMSSTKGKYKAFSTCGSHLSVVSLFYGTGLGVYLSSAVTHSSQSSSIASVMYTVVTPMLNPFIYSLRNKDVKGALGRLLSRAASCP
modifications: OR7D4 consensus-c
notes: as for B1
ligand responsiveness in comparison with the original human receptor [2]: sufficiently elevated
